From US12377077B2, “Methods and formulations to treat mitochondrial dysfunction” (The Board of Trustees of the Leland Stanford Junior …, priority 2018, dated 2025)
pEC50: −log10 of the molar value. Entries after “also recorded” stand apart in the source; their conditions may differ.

What was measured:
[1] = tested on: SURF1-deficient fibroblasts; test: Cellular morphology by phase-contrast microscopy; format: cell-based, human; conditions: vs DMSO
Description: Fibroblasts in tissue culture were visualized by phase-contrast microscopy with a Leica DM IRB microscope at ×10 magnification, and images were taken with the Hamamatsu ORCA-ER camera.

[2] = tested on: SURF1-deficient fibroblasts; test: Cell viability by Calcein AM in mitochondrial stressor media; format: cell-based, human; conditions: for cellular viability, dose dependent manner: SURF1 deficient fibroblasts, FIG. 2F
Description: (§1) Fibroblasts previously derived from four patients with primary mitochondrial disease (Surf1, Complex I, Cox10, Polg), three patients with NGLY1 deficiency and four normal controls were used for the study. All samples were obtained with informed consent and approved by the Stanford IRB. Fibroblasts were maintained in DMEM medium containing 8.3 mM glucose and supplemented with 10% fetal bovine serum (FBS)(Fisher Scientific), 1% Penicillin-Streptomycin (10,000 U/mL)(Life Technologies), 1% glutaMAX (Life Technologies), 1% uridine (5 mg/ml) and 1% pyruvate (11 mg/ml) at 37° C., 5% CO2. For the screening of various compounds, 15×10^3 cells/500 ul media were seeded in quadruplets on 24 well microtiter plates. The following day, the medium was removed, wells washed with PBS and replaced with a mitochondrial stressor media containing DMEM, 1% Penicillin-Streptomycin (10,000 U/mL)(Life Technologies), 10% FCS (Fisher Scientific), 1 mM Galactose (Sigma Aldrich), and 25 μM sodium azide with or without the following compounds: 1 mM AICAR (Medchem Express), 1 mM Metformin (Sigma Aldrich), 100 μM PT1 (Santa Cruz Biotechnology), 100 μ[…] Express). Following treatment with the various compounds, tissue cultures were analyzed for growth, oxygen consumption rate, and ATP levels. Methods: Cell growth was measured by a fluorometric method using Calcein AM (Anaspec). Mitochondrial stressor media was removed, wells washed with PBS and then incubated with 500 ul/well of 800 nM Calcein AM in PBS for 30 min at 37 C, 5% CO2. Cell viability was measured by values obtained using a 485 nm excitation with the Flouroskan Ascent Microplate Fluorometer (Thermo Scientific).

[3] = tested on: AMPK; test: AMPK activity used in determining EC50 (FIG. 16B); format: biochemical
[4] = tested on: mitochondrial cytochrome C oxidase (CytoC) and succinate dehydrogenase (SDH) activities; test: Histological staining of skeletal muscle for mitochondrial enzyme activities; format: in vivo; conditions: Sco2 KI/KO mice vs vehicle, FIG. 11D
Description: (§2) Methods: To examine the effects of AMPK agonists on in vivo systems with mitochondrial dysfunction, MK8722 was used to treat a mouse model of mitochondrial disease. These mice have mitochondrial Complex IV deficiency caused by deficient cytochrome C oxidase assembly protein, SCO2, and harbor a Sco2 knock-out (KO) allele and a Sco2 knock-in (KI) allele expressing an E→K mutation at position 129 (E129K). The E129K mutation corresponds to the E140K mutation found in almost all human SCO2-mutated patients. (See e.g., Yang et al, Analysis of mouse models of cytochrome c oxidase deficiency owing to mutations in Sco2. Hum Mol Genet. 2010 Jan. 1; 19(1):170-80; the disclosure of which is incorporated by reference herein in its entirety.) The predominant phenotype of Sco2 deficient mice is reduced locomotor function and ocular defects, both common findings in patients with primary mitochondrial disease. The Sco2 mice were grouped into four treatment groups: Sco2 KI/KO+MK8722, Sco2 KI/KO+DMSO (vehicle), Control KI/WT+MK8722, Control KI/WT+DMSO with 7-9 mice per group. 1.5-month old Sco2 mice were treated once daily by oral gavage with MK8722 (10 mg/kg) or vehicle (DMSO) for 14 weeks. Locomotor function was evaluated using the activity chamber, rotarod, and hanging-wire tests and ocular structure using optical coherence tomography (OCT).

[5] = tested on: Sco2 deficient mice; test: Hanging wire test in Sco2 mice; format: in vivo; conditions: KO/KI mice; vehicle 173.2 sec
Description: as §2

[6] = tested on: phosphorylated ACC (pACC); test: pACC western blot in skeletal muscle of Sco2 KI/KO mice; format: in vivo; conditions: KI/KO mice vs vehicle; FIGS. 11F-11G
Description: as §2

[7] = tested on: Sco2 deficient mice; test: Ocular structure by optical coherence tomography (OCT) in Sco2 mice; format: in vivo; conditions: for thickness of the retinal nerve fiber layer (RNFL): 10 mg/kg once daily oral gavage
Description: as §2

[8] = tested on: Sco2 deficient mice; test: Activity chamber test in Sco2 mice; format: in vivo
Description: as §2

[9] = tested on: Sco2 deficient mice; test: Rotarod running test in Sco2 mice; format: in vivo; conditions: KO/KI mice; vehicle 176.1 sec
Description: as §2

[10] = tested on: glycogen content; test: Histological assessment of glycogen in skeletal muscle; format: in vivo; conditions: Sco2 KI/KO mice vs untreated; FIG. 11E
Description: as §2

[11] = tested on: phosphorylated ACC (pACC); test: pACC western blot in mitochondrial-defective patient cells; format: cell-based, human; conditions: mitochondrial-defective patient cells vs DMSO; FIG. 16A
[12] = tested on: CI-deficient fibroblasts; test: Cell viability by Calcein AM in mitochondrial stressor media; format: cell-based, human; conditions: FIG. 2C
Description: Fibroblasts previously derived from four patients with primary mitochondrial disease (Surf1, Complex I, Cox10, Polg), three patients with NGLY1 deficiency and four normal controls were used for the study. All samples were obtained with informed consent and approved by the Stanford IRB. Fibroblasts were maintained in DMEM medium containing 8.3 mM glucose and supplemented with 10% fetal bovine serum (FBS)(Fisher Scientific), 1% Penicillin-Streptomycin (10,000 U/mL)(Life Technologies), 1% glutaMAX (Life Technologies), 1% uridine (5 mg/ml) and 1% pyruvate (11 mg/ml) at 37° C., 5% CO2.
For the screening of various compounds, 15×10^3 cells/500 ul media were seeded in quadruplets on 24 well microtiter plates. The following day, the medium was removed, wells washed with PBS and replaced with a mitochondrial stressor media containing DMEM, 1% Penicillin-Streptomycin (10,000 U/mL)(Life Technologies), 10% FCS (Fisher Scientific), 1 mM Galactose (Sigma Aldrich), and 25 μM sodium azide with or without the following compounds: 1 mM AICAR (Medchem Express), 1 mM Metformin (Sigma Aldrich), 100 μM PT1 (Santa Cruz Biotechnology), 100 μM A-769662 (Medchem Express), 100 μM C24 (Medchem Express). Following treatment with the various compounds, tissue cultures were analyzed for growth, oxygen consumption rate, and ATP levels.
Methods: Cell growth was measured by a fluorometric method using Calcein AM (Anaspec). Mitochondrial stressor media was removed, wells washed with PBS and then incubated with 500 ul/well of 800 nM Calcein AM in PBS for 30 min at 37 C, 5% CO2. Cell viability was measured by values obtained using a 485 nm excitation with the Flouroskan Ascent Microplate Fluorometer (Thermo Scientific).

[13] = tested on: COX10-deficient fibroblasts; test: as above; format: cell-based, human; conditions: FIG. 2B
Description: as §1

[14] = tested on: POLG-deficient fibroblasts; test: as above; format: cell-based, human; conditions: FIG. 2D
Description: as §1

With `O=C(O)c1c[nH]c2cc(Cl)c(-c3ccc(C4(O)CCC4)cc3)cc12` [PF-06409577] as the molecule, how does the cellular morphology [1] read?
Its cellular morphology is “improved cellular morphology”.

And the cellular morphology ([1]; listed as PF-04609577)?
The cellular morphology was “improved cell morphology”.

What about the “cellular viability, dose dependent manner” value (shortened to “cellular viability”) [2] of the same molecule?
Its value is “increasing levels of cellular viability”.

And the “cellular viability” value ([2]; listed as PF-04609577)?
Its value is “improved the viability”.

Which cellular morphology [1] does the source give for `O[C@@H]1CO[C@H]2[C@@H]1OC[C@H]2Oc1nc2nc(-c3ccc(-c4ccccc4)cc3)c(Cl)cc2[nH]1` [MK-8722] here?
The cellular morphology was “improved cellular morphology; also recorded: improved cell morphology”.

And the “cellular viability” value [2]?
The value was “increasing levels of cellular viability; also recorded: improved the viability”.

What about the “intensity of histological stains indicative of CytoC and SDH activities” value [4] of the same molecule?
Its value is “increased”.

What about the hanging wire time [5] of the same molecule?
The hanging wire time was 312.5 s.

And the “ACC phosphorylation in skeletal muscle” value [6]?
Its value is “increased phosphorylation of ACC; also recorded: increase in ACC phosphorylation”.

And the “thickness of the retinal nerve fiber layer (RNFL)” value ([7]; KI/WT mice, vehicle 72.7 μm)?
Its value is 74.7 μm.

What about the “thickness of the retinal nerve fiber layer (RNFL)” value ([7]; Sco2 KI/KO mice, vehicle 74.1 μm) of the same molecule?
The value was 77 μm.

What about the “retinal thickness, degradation” value ([7]; treated vs vehicle (VEH) mice, FIG. 9E) of the same molecule?
The value was “less degradation”.

And the “distance moved in the activity chamber” value ([8]; KO/KI mice, 8 weeks of treatment, vehicle 1516.7 cm)?
Its value is 2337.8 cm.

What about the “activity in activity chamber” value ([8]; knock-out/knock-in mice, FIG. 11A) of the same molecule?
Its value is “returns to levels comparable with knock-in/wild-type mice”.

What about the rotarod running time [9] of the same molecule?
The rotarod running time was 248.1 s.

What about the “glycogen content of skeletal muscle” value [10] of the same molecule?
The value was “increased glycogen content”.

With `O=C(O)c1c[nH]c2cc(Cl)c(-c3ccc(C4(O)CCC4)s3)cc12` [EV8016, 6-chloro-5-(5-(1-hydroxycyclobutyl)thiophen-2-yl)-1H-indole-3-carboxylic acid] as the molecule, how does the pEC50 [3] read?
The pEC50 was 6.63.

And the “ACC phosphorylation (AMPK activation)” value [11]?
Its value is “capable of activating AMPK”.

Which results are given for `NC(=O)c1ncn([C@@H]2O[C@H](CO)[C@@H](O)[C@H]2O)c1N` [AICAR]?
survival / viability [12]: does not improve cell viability; also recorded: did not improve survival; mean cell survival increased ([2]; SURF1 cells, vs untreated control treated with PBS): 57%; survival / viability [13]: does not improve cell viability; also recorded: did not improve survival; survival / viability [14]: does not improve cell viability; also recorded: did not improve survival

Which results are given for `OCC1(c2ccc(-c3cc4nc(O[C@@H]5CO[C@H]6[C@@H]5OC[C@H]6O)[nH]c4cc3Cl)cc2)CC1` [PF-739]?
cellular morphology [1]: improved cellular morphology; also recorded: improved cell morphology; cellular viability, dose dependent manner [2]: increasing levels of cellular viability; also recorded: improved the viability

With `N#Cc1c(O)c2c(-c3ccc(-c4ccccc4O)cc3)csc2[nH]c1=O` [Compound A-769662] as the molecule, how does the survival / viability [12] read?
The survival / viability was “improved survival”.

And the survival / viability [14]?
The survival / viability was “improved survival”.

`Cc1ccc(OCCSc2ncccn2)c(Br)c1` [ZLN024] was tested. Which survival / viability [12] did it give?
Its survival / viability is “improved survival”.
